Measured values reported in patent US9840512B2, “Antidiabetic bicyclic compounds” (Merck Sharp & Dohme Corp., priority 2013, dated 2017).

Legend:
human GPR40 [1] = biological target: T1, human GPR40 (Homo sapiens, UniProt O14842); experiment: Inositol Phosphate Turnover (IP1) Assay 1; conditions: Human IP1 Assay 1, EC50, nM, HEK cells stably expressing human GPR40
Procedure: The assay is performed in 96-well format. HEK cells stably expressing human GPR40 are plated to be 60-80% confluent within 72 h. After 72 h, the plates are aspirated and the cells washed with inositol-free DMEM (ICN). The wash media is replaced with 150 μL of 3H-inositol labeling media (inositol-free media containing 0.4% human albumin or 0.4% mouse albumin, 1× pen/strep antibiotics, glutamine, 25 mM HEPES to which is added 3H-myo-inositol NEN #NET114A 1 mCi/mL, 25 Ci/mmol diluted 1:150 in loading media with a final specific radioactivity of 1 μCi/150 μL). Alternatively, the human and mouse albumin can be added after the overnight labeling step before the addition of LiCl.
The assay is typically run the next day after 18 h labeling. On the day of the assay, 5 μL of 300 mM LiCl is added to all wells and incubated at 37 degrees for 20 min. 0.75 μL of 200× compounds are added and incubated with the cells for 60 min at 37 degrees. The media is then aspirated off and the assay terminated with the addition of 60 μL 10 mM formic acid. The cells are lysed for 60 min at room temperature. 15-30 μL of lysate is mixed with 70 μL/1 mg YSi SPA beads (Amersham) in clear bottom Isoplates. The plates are shaken for 2 h at room temperature. Beads are allowed to settle and the plates are counted in the Wallac Microbeta.

human GPR40 [2] = biological target: T1, human GPR40; experiment: FLIPR assay (agonist-induced calcium mobilization); conditions: Human FLIPR EC50, nM or % activation (EC50 values), GPR40/CHO NFAT BLA cells
Procedure: Human and mouse GPR40 stable cell-lines were generated in CHO cells stably expressing NFAT BLA (Beta-lactamase). […] The expression plasmids were transfected using lipofectamine (Life Technologies) following manufacturer's instructions. Stable cell-lines were generated following drug selection.
FLIPR (Fluorimetric Imaging Plate Reader, Molecular Devices) assays were performed to measure agonist-induced calcium mobilization of the stable clones. For the FLIPR assay, one day before assay, GPR40/CHO NFAT BLA cells were seeded into black-wall-clear-bottom 384-well plates (Costar) at 1.4×10e4 cells/20 μL medium/well. The cells were incubated with 20 μl/well of the assay buffer (HBSS, 0.1% BSA, 20 mM HEPES, 2.5 mM probenecid, pH 7.4) containing 8 μM fluo-4, AM, 0.08% pluronic acid at room temperature for 100 minutes. Fluorescence output was measured using FLIPR. Compounds were dissolved in DMSO and diluted to desired concentrations with assay buffer.

T1 sequence (O14842 whole entry): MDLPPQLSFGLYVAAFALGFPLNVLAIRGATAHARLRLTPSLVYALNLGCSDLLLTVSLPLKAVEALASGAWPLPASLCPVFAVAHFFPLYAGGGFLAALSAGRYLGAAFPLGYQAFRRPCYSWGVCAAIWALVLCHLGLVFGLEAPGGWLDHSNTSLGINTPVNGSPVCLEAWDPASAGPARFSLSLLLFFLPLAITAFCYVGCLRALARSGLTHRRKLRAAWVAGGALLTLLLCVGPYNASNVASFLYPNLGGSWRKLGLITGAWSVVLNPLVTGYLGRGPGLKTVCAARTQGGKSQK

EC50 (human GPR40 [1]) [nM] | EC50 (human GPR40 [2]) [nM] | SMILES
1690 | 83 | CC#C[C@@H](CC(=O)O)c1ccc2c(c1)CCC(c1cc(-c3ccc(OC)nc3C)ccc1F)O2 (single isomer, unassigned) [Example 38]
83 | 26 | CC#C[C@@H](CC(=O)O)c1ccc2c(c1)CCC(c1cc(-c3c(C)cccc3C)ccc1F)O2 (single isomer, unassigned) [Example 21]
3630 | 292 | Cc1cccc(C)c1-c1ccc(F)c(C2CCc3cc(CCC(=O)O)ccc3O2)n1 (racemic) [Example 3]
116 | 40 | CC#CC(CC(=O)O)c1ccc2c(c1)CCC(c1cccc(Oc3ccc(C#N)cc3)c1)O2 (mixture of isomers) [Example 23]
1220 | 74 | CC#C[C@@H](CC(=O)O)c1ccc2c(c1)CCC(c1cccc(-c3cccc4c3c(C(F)(F)F)nn4C)c1)O2 (single isomer, unassigned) [Example 42]
248 | 17 | CC#C[C@@H](CC(=O)O)c1ccc2c(c1)CCC(c1ccc(OCc3ccccc3)c(-c3c(C)cccc3C)c1)O2 (mixture of isomers) [Example 52]
175 | 64 | CC#C[C@@H](CC(=O)O)c1ccc2c(c1)CCC(c1cccc(-c3cccc4c3c(C(F)(F)F)nn4C)c1)O2 (single isomer, unassigned) [Example 41]
1300 | 114 | CC#C[C@@H](CC(=O)O)c1ccc2c(c1)CCC(c1cc(C3=CCCC3(C)C)ccc1F)O2 (mixture of isomers) [Example 33]
710 | 76 | CC#CC(CC(=O)O)c1ccc2c(c1)CCC(c1nc(-c3c(C)cccc3C)ccc1F)O2 (mixture of isomers) [Example 16]
58 | 57 | CC#CC(CC(=O)O)c1ccc2c(c1)CCC(c1cc(-c3ccc(OC)nc3C)ccc1F)O2 (mixture of isomers) [Example 24]
1910 | 117 | Cc1ccccc1-c1ccc(F)c(C2CCc3cc4c(cc3O2)OC[C@H]4CC(=O)O)c1 (stereo partly shown) [Example 56]
1700 | 185 | Cc1cc(OCCS(C)(=O)=O)cc(C)c1-c1cccc(C2CCc3cc(CCC(=O)O)ccc3O2)c1 (racemic) [Example 6]
726 | 52 | CC#CC(CC(=O)O)c1ccc2c(c1)CCC(c1cccc(-c3ccccc3C(F)(F)F)c1)O2 (mixture of isomers) [Example 27]
1670 | 85 | Cc1cccc(C)c1-c1cccc(C2CCc3cc(CCC(=O)O)ccc3O2)c1 (single isomer, unassigned) [Example 5]
2520 | 51 | Cc1ccccc1-c1cc(F)c(C2CCc3cc4c(cc3O2)OC[C@H]4CC(=O)O)cc1-c1ccccc1C (mixture of isomers) [Example 59]
544 | 38 | Cc1cccc(C)c1-c1cccc(C2CCc3cc(CCC(=O)O)ccc3O2)c1 (single isomer, unassigned) [Example 4]
31 | 37 | CC#C[C@@H](CC(=O)O)c1ccc2c(c1)CCC(c1cc(-c3cccnc3C(F)(F)F)ccc1F)O2 (single isomer, unassigned) [Example 35]
